Reference: article PMC11276849, “A Female-Biased Chemosensory Protein PxutCSP19 in the Antennae of Papilio xuthus Tuned to Host Volatiles and Insecticides” (Insects, 2024)
Where two headings read alike, the source gives them in different places.

Target: PxutCSP19 (Papilio xuthus, UniProt A0A194QJK0)
Experiment: Fluorescence competitive binding assay (1-NPN displacement), wildtype PxutCSP19
Details: for inhibition at 20 µM: read-out: F.D. (fluorescent displacement rate of ligands), Wildtype (WT); for inhibition at 20 µM / F.D. (fluorescent displacement rate of ligands): ligand at 20 μM, PxutCSP19/1-NPN each 2 μM, NB = no binding; for 1-NPN fluorescence displaced: wildtype, ligand at 36 μM
Description: The open reading frame (ORF) of PxutCSP19 was cloned with a PrimeSTAR®® Max DNA Polymerase (TaKaRa, Liaoning, Dalian, China) and gene-specific primers containing restriction enzyme sites (BamH I and Xho I) (Table S2). The PCR products were detected on a 1.5% (w/v) agarose gel, and the expected bands were cut and purified using a HiPure Gel Pure DNA Mini Kit (Magen, Guangzhou, China). Next, BamH I and Xho I were used to digest the PxutCSP19 products and pET-30a (+) plasmids, followed by purification. A T4 DNA ligase (Thermo Fisher Scientific, Waltham, MA, USA) was applied to the construction of the recombinant plasmids pET-30a (+)/PxutCSP19. After being confirmed by sequencing, the plasmids were transformed into BL21 (DE3) competent cells so as to express recombinant proteins with 1.0 mM isopropyl β-D-thiogalactoside (IPTG). Because this recombinant protein pET-30a (+)/PxutCSP19 was insoluble, we applied a protein denaturation–renaturation approach to purify PxutCSP19 with an affinity chromatography technique, in which the denaturation buffer included 8 M urea and 1.0 mM β-mercaptoethanol.
In order to investigate the ligand-binding properties of PxutCSP19 to host odorants and insecticides, we first asked whether this fluorescent probe 1-NPN was available for the binding of PxutCSP19. To calculate the binding ability of PxutCSP19 to 1-NPN, we titrated different final concentrations of 1-NPN (2~20 μM) into Tris-HCl buffer (pH 7.4) containing 2 μM PxutCSP19. The binding constant (K1-NPN) of 1-NPN to this protein was determined with GraphPad Prism 7 (GraphPad Software Inc., San Diego, CA), as previously described. The solution was excited at 337 nm and the emission peak was monitored at 414 nm on an RF-5301PC spectrofluorometer (Shimadzu, Kyoto, Japan) using a quartz micro-cuvette filled with a 100 μL mixture, with 5 nm excitation and emission slit widths. If the host odorant molecules could displace more than 40% of the 1-NPN fluorescence from the binding cavity of PxutCSP19, the compounds would be continuously added up to 36 μM with triplicates. For the binding experiments, each compound would be added into the PxutCSP19/1-NPN (each 2 μM) complex with final concentrations of 2~20 μM. […] We used the Ki values to compare the binding affinities of various ligands with the equation: Ki = [IC50]/(1 + [1-NPN]/K1-NPN), where IC50 represents the ligand concentrations displacing one half of the initial protein/1-NPN fluorescence, and [1-NPN] is the free concentration of 1-NPN at 2 μM.

[1] = Wildtype (WT), ligand up to 20 μM or 36 μM, displacing half of protein/1-NPN fluorescence, read-out: IC50

Chain of PxutCSP19 (A0A194QJK0 entry or part of it): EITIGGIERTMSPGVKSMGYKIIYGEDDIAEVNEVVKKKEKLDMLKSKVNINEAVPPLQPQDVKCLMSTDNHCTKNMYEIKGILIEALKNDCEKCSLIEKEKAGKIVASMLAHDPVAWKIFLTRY

IC50 | inhibition at 20 µM | 1-NPN fluorescence displaced | SMILES | F.D. (fluorescent displacement rate of ligands) (Wildtype (WT)) | IC50 [1]
> 20 µM | 12.4% |  | C=CC(C)(O)CCC=C(C)CCC=C(C)C (mixture of isomers) [Nerolidol] |  | 
> 20 µM | 35.1% |  | CC1=CCC2C(C1)C2(C)C (stereo not shown) [3-Carene] |  | 
> 36 µM | > 40% | less than 50% | CC1=CCC(O)(C(C)C)CC1 (stereo not shown) [4-Terpineol] |  | 
> 20 µM | 38.4% |  | CC1=CC[C@@H]2C[C@H]1C2(C)C [(1R)-(+)-α-Pinene] |  | 
> 20 µM | 34.5% |  | C=C1C2CCC(C2)C1(C)C (stereo not shown) [Camphene] |  | 
> 20 µM | 37.4% |  | Cc1ccc(C(C)C)cc1O [Carvacrol] |  | 
> 20 µM | 39.7% |  | CC(C)=CCC/C(C)=C/C=O [Citral] |  | 
> 20 µM | 37.6% |  | CCOC(C)=O [Ethyl acetate] |  | 
> 20 µM | 28.7% |  | CCCC(=O)OCC [Ethyl butyrate] |  | 
> 20 µM | 27% |  | CC(C)=CCC/C(C)=C/CC/C(C)=C/CO [Farnesol] |  | 
 | 39% |  | CC(C)=CCC/C(C)=C/CO [Geraniol] |  | 
> 20 µM | 33.3% |  | CC(=O)OC/C=C(\C)CCC=C(C)C [Geranyl acetate] |  | 
> 20 µM | 21.1% |  | CCCCCC=O [Hexanal] |  | 
> 20 µM | 32.4% |  | C=CC(=C)CCC=C(C)C [Myrcene] |  | 
> 20 µM | 39.7% |  | OCCc1ccccc1 [Phenethyl alcohol] |  | 
> 20 µM | 33.5% |  | C=C1CCC2(C(C)C)CC12 (stereo not shown) [Sabinene] |  | 
> 20 µM | 34.1% |  | CC1=CC[C@H](C(C)C)C=C1 [α-Phellandrene] |  | 
> 20 µM | 34.6% |  | CC1=CCC2CC1C2(C)C (stereo not drawn) [α-Pinene] |  | 
> 36 µM | > 40% | less than 50% | CC1=CC[C@@H](C(C)(C)O)CC1 [α-Terpineol] |  | 

Second part, the compound before the results:

SMILES | IC50 | inhibition at 20 µM | 1-NPN fluorescence displaced | F.D. (fluorescent displacement rate of ligands) (Wildtype (WT)) | IC50 [1]
CCCCCCO [1-Hexanol] | > 20 µM | 39% |  |  | 
CCC/C=C/CO [(E)-2-Hexen-1-ol] | > 20 µM | 35.6% |  |  | 
CCC/C=C/C=O [(E)-2-Hexenal] | > 20 µM | 33.8% |  |  | 
CC/C=C\CCO [(Z)-3-Hexen-1-ol] | > 20 µM | 35.8% |  |  | 
COP(=O)(NC(C)=O)SC (stereo not shown) [Acephate, reference compound] | > 20 µM | 37.1% |  |  | 
C/C(=N\C#N)N(C)Cc1ccc(Cl)nc1 [Acetamiprid, reference compound] | > 20 µM | 42.9% |  |  | 
C/C=C(\C)C(=O)O[C@H]1C[C@@H](OC(C)=O)[C@@]2(C(=O)OC)CO[C@H]3[C@@H](O)[C@@](C)([C@]45O[C@@]4(C)[C@H]4C[C@@H]5O[C@@H]5OC=C[C@@]54O)[C@H]4[C@]1(CO[C@]4(O)C(=O)OC)[C@@H]32 [Azadirachtin, reference compound] | > 20 µM | 34.5% |  |  | 
O=Cc1ccccc1 [Benzaldehyde] | > 20 µM | 36.9% |  |  | 
CNC(=O)c1cc(Cl)cc(C)c1NC(=O)c1cc(Br)nn1-c1ncccc1Cl [Chlorantraniliprole, reference compound] | > 20 µM | 43.6% |  |  | 
O=C(NC(=O)c1ccccc1Cl)Nc1ccc(Cl)cc1 [Chlorbenzuron, reference compound] |  |  |  | 42.75% | > 20 µM
CC(C)=CCC[C@@H](C)CC=O [Citronellal] |  |  |  | 34.20% | > 20 µM
CCCCCCCCCC=O [Decanal] | > 20 µM | 28.7% |  |  | 
CC1(C)[C@H](C(=O)O[C@H](C#N)c2cccc(Oc3ccccc3)c2)[C@@H]1C=C(Br)Br [Deltamethrin, reference compound] | > 20 µM | 39.3% |  |  | 
O=C(NC(=O)c1c(F)cccc1F)Nc1ccc(Cl)cc1 [Diflubenzuron, reference compound] | > 20 µM | 27% |  |  | 
N#Cc1nn(-c2c(Cl)cc(C(F)(F)F)cc2Cl)c(N)c1[S+]([O-])C(F)(F)F (stereo not shown) [Fipronil, reference compound] | > 20 µM | 37.5% |  |  | 
O=[N+]([O-])NC1=NCCN1Cc1ccc(Cl)nc1 [Imidacloprid, reference compound] | > 20 µM | 41.7% |  |  | 
c1ccc2[nH]ccc2c1 [Indole] | > 20 µM | 39% |  |  | 
C=C(C)[C@H]1CC=C(C)CC1 [Limonene] |  |  |  | 20.36% | > 20 µM

SMILES | IC50 | inhibition at 20 µM | 1-NPN fluorescence displaced | F.D. (fluorescent displacement rate of ligands) (Wildtype (WT)) | IC50 [1]
O=C1CCC[C@@H]2[C@H]3CCCN4CCC[C@@H](CN12)[C@@H]34 [Matrine, reference compound] | > 20 µM | 40% |  |  | 
CNC(=O)ON=C(C)SC [Methomyl, reference compound] | > 20 µM | 45.4% |  |  | 
COC(=O)c1ccccc1C [Methyl o-toluate] |  |  |  | 37.28% | > 20 µM
CCCCCCCCC=O [Nonanal] | > 20 µM | 29.3% |  |  | 
CCCCCCCC=O [Octanal] | > 20 µM | 22.8% |  |  | 
O=CCc1ccccc1 [Phenylacetaldehyde] | > 20 µM | 27.3% |  |  | 
CCCSP(=O)(OCC)Oc1ccc(Br)cc1Cl (stereo not shown) [Profenofos, reference compound] | > 20 µM | 41% |  |  | 
CC1(C)[C@H]2O[C@H]2[C@H]2[C@](C)(O)[C@@H]3CC[C@@H]4[C@@H](O)[C@@]3(C[C@@H](O)[C@@]21O)C[C@@]4(C)O [Rhodojaponin III, reference compound] |  |  |  | 38.52% | > 20 µM
CCc1ccc(C(=O)NN(C(=O)c2cc(C)cc(C)c2)C(C)(C)C)cc1 [Tebufenozide, reference compound] | > 20 µM | 48.5% |  |  | 
CN1COCN(Cc2cnc(Cl)s2)/C1=N\[N+](=O)[O-] [Thiamethoxam, reference compound] | > 20 µM | 44.6% |  |  | 
CS/C(C)=N\OC(=O)N(C)SN(C)C(=O)O/N=C(\C)SC [Thiodicarb, reference compound] | > 20 µM | 37.4% |  |  | 
COP(=O)(OC)C(O)C(Cl)(Cl)Cl (stereo not shown) [Trichlorphon, reference compound] |  |  |  | 33.61% | > 20 µM
O=C(NC(=O)c1ccccc1Cl)Nc1ccc(OC(F)(F)F)cc1 [Triflumuron, reference compound] | > 20 µM | 28% |  |  | 
CCCCCCCCCCC=O [Undecanal] | > 20 µM | 27.7% |  |  | 
Cc1ccc(C(C)C)cc1 [p-Isopropyl toluene] |  |  |  | 32.32% | > 20 µM
C/C1=C\CC/C(C)=C/CC(C)(C)/C=C/C1 [α-Caryophyllene] |  |  |  | 7.48% | > 20 µM
CC1(C)C(C=C(Cl)Cl)C1C(=O)OC(C#N)c1cccc(Oc2ccccc2)c1 (stereo not drawn) [α-Cypermethrin, reference compound] | > 20 µM | 5.65% |  |  | 
CC1=CC=C(C(C)C)CC1 [α-Terpinene] | > 36 µM | > 40% | less than 50% |  | 
